{
  "source": "paper PMC9511493",
  "about": "“2-(Fluoromethoxy)-4′-(S-methanesulfonimidoyl)-1,1′-biphenyl (UCM-1306), an Orally Bioavailable Positive Allosteric Modulator of the Human Dopamine D1 Receptor for Parkinson’s Disease” (Journal of Medicinal Chemistry, 2022)",
  "key": {"human D2R": {"target": "T1, human D2R (Homo sapiens, UniProt P14416)", "T1 construct": "expressed in transfected cells; host or cells: in-house CHO cell line", "T1 sequence (P14416 whole entry)": "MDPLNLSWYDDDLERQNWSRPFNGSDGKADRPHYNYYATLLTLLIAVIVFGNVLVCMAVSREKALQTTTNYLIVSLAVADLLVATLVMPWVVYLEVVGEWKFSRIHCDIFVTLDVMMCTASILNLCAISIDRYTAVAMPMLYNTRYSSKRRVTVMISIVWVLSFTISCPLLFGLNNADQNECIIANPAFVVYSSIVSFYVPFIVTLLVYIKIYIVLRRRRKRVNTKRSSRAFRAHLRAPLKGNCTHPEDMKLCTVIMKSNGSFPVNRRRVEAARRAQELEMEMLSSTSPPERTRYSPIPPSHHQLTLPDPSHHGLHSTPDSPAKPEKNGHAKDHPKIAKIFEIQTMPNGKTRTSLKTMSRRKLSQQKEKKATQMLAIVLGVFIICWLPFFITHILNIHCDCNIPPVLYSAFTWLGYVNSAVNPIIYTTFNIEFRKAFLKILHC", "assay": "functional cAMP assay at recombinant human D2R in CHO cells", "type": "cell-based", "details": "10 μM compound", "protocol": "Functional studies at human D1 and D2 receptors were carried out in endogenously expressed human D1R in the SK-N-MC cell line (ATCC), and recombinant human D2R stably transfected in an in-house CHO cell line. Cells were thawed and seeded into a black 96-well plate (1 × 10^4 cells/well for SK-N-MC cell line, 5 × 10^3 cells/well for CHO cell line) in Opti-MEM containing 500 μM IBMX (3-isobutyl-1-methylxanthine). Test compounds were added to the cells and incubated for 15 min at 25 °C for D1R, and for 5 min at 37 °C for D2R. After this time, dopamine was added to the corresponding wells and incubated for additional 15 min at 25 °C for D1R, and 10 min at 37 °C for D2R. Next, treated cells were lysed (for the D2R assay, cells were previously treated with 10 μM forskolin for 5 min at 37 °C) and the cAMP concentration was measured by HTRF, using a kit from Cisbio. HTRF was read in a Tecan M1000 Genius Pro reader (λexcitation = 320 nm, λemission = 620 and 665 nm, 30 flashes), and data were normalized to the dopamine maximum effect and fitted to a 4-parameter logistic equation by using Prism v2.1 software (GraphPad Inc)."}, "human D3R": {"target": "T2, human D3R (Homo sapiens, UniProt P35462)", "T2 construct": "host or cells: cells supplied with the PatHunter Beta-arrestin eXpress GPCR assay kit", "T2 sequence (P35462 whole entry)": "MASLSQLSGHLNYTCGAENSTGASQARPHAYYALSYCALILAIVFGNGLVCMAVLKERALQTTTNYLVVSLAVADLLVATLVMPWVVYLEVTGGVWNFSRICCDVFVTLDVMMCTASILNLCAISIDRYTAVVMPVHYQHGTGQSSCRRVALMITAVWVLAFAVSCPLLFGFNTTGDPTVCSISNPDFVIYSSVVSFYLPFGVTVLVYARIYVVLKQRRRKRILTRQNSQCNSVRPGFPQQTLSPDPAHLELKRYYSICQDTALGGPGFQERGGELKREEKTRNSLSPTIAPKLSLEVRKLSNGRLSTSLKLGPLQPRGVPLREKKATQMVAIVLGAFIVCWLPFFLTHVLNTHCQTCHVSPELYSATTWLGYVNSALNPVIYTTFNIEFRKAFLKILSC", "assay": "PatHunter beta-arrestin assay at human D3R", "type": "cell-based", "details": "10 μM compound", "protocol": "(§1) Functional studies at both human D3 and D4 receptors were carried out in human D3 and D4 receptors, using a PatHunter Beta-arrestin eXpress GPCR assay kit from DiscoverX. Briefly, cells were plated and maintained for 48 h at 37 °C in a 5% CO2 atmosphere in cell plating reagent provided in the kit. After this time, test compounds were added to the cells and incubated for 30 min at 37 °C. Dopamine was added to the cells and incubated for an additional 90 min at 37 °C. Cells were then treated with the working detection solution provided with the kit for 1 h and beta-arrestin translocation was measured by luminescence detection (integration time = 500 ms) in a Tecan M1000 Genius Pro reader. Data were normalized to dopamine maximum effect and fitted to a 4-parameter logistic equation using Prism v2.1 software (GraphPad Inc)."}, "human D4R": {"target": "T3, human D4R (Homo sapiens, UniProt P21917)", "T3 construct": "host or cells: cells supplied with the PatHunter Beta-arrestin eXpress GPCR assay kit", "T3 sequence (P21917 1-419)": "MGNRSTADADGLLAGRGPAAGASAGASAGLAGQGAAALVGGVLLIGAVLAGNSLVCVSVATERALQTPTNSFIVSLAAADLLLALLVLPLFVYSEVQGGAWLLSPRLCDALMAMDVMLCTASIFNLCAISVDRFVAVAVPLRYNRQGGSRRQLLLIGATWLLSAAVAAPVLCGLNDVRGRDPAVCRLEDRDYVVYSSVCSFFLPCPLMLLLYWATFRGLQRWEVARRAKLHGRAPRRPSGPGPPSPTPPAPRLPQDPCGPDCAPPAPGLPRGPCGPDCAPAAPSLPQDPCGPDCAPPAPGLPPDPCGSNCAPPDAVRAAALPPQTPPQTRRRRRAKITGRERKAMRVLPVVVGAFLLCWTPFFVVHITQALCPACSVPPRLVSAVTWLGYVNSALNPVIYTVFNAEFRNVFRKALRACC", "assay": "PatHunter beta-arrestin assay at human D4R", "type": "cell-based", "details": "10 μM compound", "protocol": "as §1"}, "human D5R": {"target": "T4, human D5R (Homo sapiens, UniProt P21918)", "T4 construct": "host or cells: cells supplied with the cAMP Hunter eXpress DRD5 assay kit", "T4 sequence (P21918 whole entry)": "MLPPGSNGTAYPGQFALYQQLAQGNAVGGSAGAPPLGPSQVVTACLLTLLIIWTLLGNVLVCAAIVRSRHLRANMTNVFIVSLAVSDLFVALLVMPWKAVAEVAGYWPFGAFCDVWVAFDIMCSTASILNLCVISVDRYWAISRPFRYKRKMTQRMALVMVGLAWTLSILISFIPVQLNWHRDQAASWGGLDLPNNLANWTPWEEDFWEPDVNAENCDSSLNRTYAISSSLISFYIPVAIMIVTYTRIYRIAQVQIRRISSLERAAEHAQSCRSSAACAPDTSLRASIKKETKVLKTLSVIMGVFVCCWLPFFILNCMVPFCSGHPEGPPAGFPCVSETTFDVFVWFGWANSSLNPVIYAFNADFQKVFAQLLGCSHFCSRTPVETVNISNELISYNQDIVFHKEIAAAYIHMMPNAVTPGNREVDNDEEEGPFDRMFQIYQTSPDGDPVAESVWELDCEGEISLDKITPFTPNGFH", "assay": "cAMP Hunter eXpress DRD5 assay at human D5R", "type": "cell-based", "details": "10 μM compound", "protocol": "Functional studies at human D5R receptors were carried out in human D5R, using a cAMP Hunter eXpress DRD5 assay kit from DiscoverX. Briefly, cells were plated and maintained for 24 h at 37 °C in a 5% CO2 atmosphere in the cell plating reagent provided in the kit. After this time, test compounds were added to the cells and incubated for 15 min at 37 °C, followed by treatment with dopamine and incubation for an additional 30 min at 37 °C. Cells were then treated with the cAMP working detection solution provided with the kit for 1 h, and then cAMP solution A was added and incubated for 3 h at rt. cAMP formation was measured by luminescence detection (integration time = 500 ms) in a Tecan M1000 Genius Pro reader. Data were normalized to dopamine maximum effect and fitted to a 4-parameter logistic equation using Prism v2.1 software (GraphPad Inc)."}, "stability in mouse serum": {"assay": "stability in mouse serum", "type": "in vitro ADME", "details": "remaining compound after 4 h"}, "CYP2C19": {"target": "T5, CYP2C19 (Homo sapiens, UniProt P33261)", "T5 construct": "host or cells: insect cell microsomes", "T5 sequence (P33261 whole entry, canonical isoform)": "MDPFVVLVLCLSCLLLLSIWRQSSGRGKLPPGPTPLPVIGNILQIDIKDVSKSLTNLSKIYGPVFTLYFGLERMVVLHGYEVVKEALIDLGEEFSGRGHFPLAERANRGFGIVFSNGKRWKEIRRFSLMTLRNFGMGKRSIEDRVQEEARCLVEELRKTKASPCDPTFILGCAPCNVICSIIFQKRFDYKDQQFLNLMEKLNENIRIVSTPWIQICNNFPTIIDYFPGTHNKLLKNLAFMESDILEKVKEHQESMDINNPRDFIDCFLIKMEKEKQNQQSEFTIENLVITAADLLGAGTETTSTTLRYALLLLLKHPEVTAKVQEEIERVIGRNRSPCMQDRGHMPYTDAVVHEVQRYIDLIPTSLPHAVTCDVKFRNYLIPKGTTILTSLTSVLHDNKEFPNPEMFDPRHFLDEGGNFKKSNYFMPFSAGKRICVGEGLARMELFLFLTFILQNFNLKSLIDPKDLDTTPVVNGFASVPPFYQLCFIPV", "assay": "cytochrome inhibition, fluorescence assay, CYP2C19", "type": "in vitro ADME", "protocol": "Cytochrome inhibition. The objective of this study was to screen the potential of test […]\nperformed using recombinant isoforms CYP1A2, CYP2C9, CYP2C19, CYP2D6, and CYP3A4, and probe substrates with fluorescent detection.\nAssays were conducted in a 200 µL volume in 96-well microtiter plates (COSTAR 3915).\nAddition of cofactor-buffer mixture (KH2PO4 buffer, 1.3 mM NADP, 3.3 mM MgCl2, 3.3 mM glucose -6- phosphate, and 0.4 U/mL glucose -6- phosphate dehydrogenase), supersomes control, standard inhibitors (furafyline, tranylzypromine, ketoconazole, sulfaphenazole, and quinidine from Sigma Aldrich) and test compound to the plate was carried out by a liquid handling station (Zephyr Caliper). The plate was then pre-incubated at 37 °C for 5 min, and the reaction was initiated by the addition of the pr e - warmed enzyme/substrate (E/S) mix. […]\nFluorescence per well was measured using a fluorescence plate reader (Tecan Infinite M1000 pro) and percentage of inhibition was calculated. hERG ion channel inhibition. […]"}},
  "data": [
    {"molecule": "O=Cc1ccc(-c2ccccc2OCF)cc1", "note": "[Compound 3, 2′-(Fluoromethoxy)[1,1′-biphenyl]-4-carbaldehyde]", "values": [
      {"measurement": "enhancement of DA Emax at human D2 receptor", "setting": "human D2R", "result": "did not enhance DA Emax"},
      {"measurement": "enhancement of DA Emax at human D3 receptor", "setting": "human D3R", "result": "did not enhance DA Emax"},
      {"measurement": "enhancement of DA Emax at human D4 receptor", "setting": "human D4R", "result": "did not enhance DA Emax"},
      {"measurement": "enhancement of DA Emax at human D5 receptor", "setting": "human D5R", "result": "did not enhance DA Emax"},
      {"measurement": "mouse serum stability (%)", "setting": "stability in mouse serum", "result": 50, "unit": "%"},
      {"measurement": "IC50", "setting": "CYP2C19", "result": "6.53 ± 1.12", "unit": "µM"}
    ]},
    {"molecule": "CS(=N)(=O)c1ccc(-c2ccccc2OCF)cc1", "note": "(stereo not drawn) [Compound 26, 2-(Fluoromethoxy)-4′-(S-methanesulfonimidoyl)-1,1′-biphenyl]", "values": [
      {"measurement": "enhancement of DA Emax at human D2 receptor", "setting": "human D2R", "result": "subtype selectivity"},
      {"measurement": "enhancement of DA Emax at human D3 receptor", "setting": "human D3R", "result": "subtype selectivity"},
      {"measurement": "enhancement of DA Emax at human D4 receptor", "setting": "human D4R", "result": "subtype selectivity"},
      {"measurement": "enhancement of DA Emax at human D5 receptor", "setting": "human D5R", "result": "subtype selectivity"},
      {"measurement": "mouse serum stability (%)", "setting": "stability in mouse serum", "result": 93, "unit": "%"},
      {"measurement": "CYP2C19 (%)", "setting": "CYP2C19; percentage of inhibition at 10 μM", "result": "37 ± 2", "unit": "%"}
    ]}
  ]
}
